Assay results: paper PMC9658316, “Discovery of Mitochondrial Complex I Inhibitors as Anticancer and Radiosensitizer Drugs Based on Compensatory Stimulation of Lactate Release” (Cancers, 2022)

What was measured:
breast 4T1 cancer cells = test: Growth inhibitory effects on cultured 4T1 cells (Presto Blue); type: cell-based, mouse; settings: 4T1 monolayers, 1 µM, 72 h, compared with CT26
Excerpt: (§1) Mouse colorectal CT26 and breast 4T1 cancer cells as well as human cervix cancer SiHa and breast MDA-MD-231 cancer cells were acquired from ATCC where they are regularly authenticated by short tandem repeat profiling. They were stored according to the supplier’s instructions and used within 6 months after resuscitation of frozen aliquots. Cancer cells were maintained in DMEM (Life Technologies, ThermoFischer scientific, Merebelke, Belgium) supplemented with 10% heat-inactivated FBS. All cell lines were tested for mycoplasma contamination with the MycoAlert™ Mycoplasma Detection kit (#LT07-318; Lonza, Verviers, Belgium) before being used. Cell integrity was determined by the Trypan Blue exclusion method (using Bürker chambers) while cell growth was assessed by using the Presto Blue reagent (Life Technologies) according to manufacturer’s instructions.
(§2) Figure 4 Mitochondrial complex I activity inhibition (Assay #2). (A–D). Graphs depict changes in O2 consumption rate (OCR) measured with the Seahorse technology on permeabilized CT26 cancer cells upon successive addition of pyruvate/malate, the indicated inhibitor and succinate. OXPHOS I inhibitor IACS was used as a control in the experiments testing reference compound aa (A), and compound aa (10µM) was used as reference for testing au, ah and at derivatives (B–D) (n = 6 per compound). (E,F). Growth inhibitory effects of cultured CT26 (E) and 4T1 […] cancer cells exposed to 100 nM IACS or 1 µM aa, ag, aj and au compounds for 72 h; data represent the reduced extent (expressed as %) of cell viability (determined with Presto Blue) when compared with vehicle conditions (n = 3).

[1] = system: colorectal CT26 cancer cells; test: Compound-induced L-lactate release (Assay #1), CT26; type: cell-based, mouse; settings: 10 µM; for [LAC] increase: 24 h exposure, L-lactate secretion above basal release; for L-lactate release compared with reference compound aa: 24 h
Protocol: (§3) L-lactate concentration was measured in a semi-automated manner using CMA Microdialysis AB enzymatic assay and a CMA 600 analyzer (Aurora Borealis, Schoonebeek, The Netherlands) as previously described. Briefly, cells (2 × 10^5 cells per well; 3 wells/condition) were seeded in 12-well plates with 2 mL of their routine culture medium. After 24 h, medium was replaced by 500 µL of DMEM containing 10 mmol/L D-glucose and supplemented with 2 mmol/L L-glutamine and 10% dialyzed FBS (Sigma-Aldrich), in the presence of the compounds or vehicle (DMSO). The initial concentration of L-lactate in the experimental medium was also assessed by including control wells containing only cell culture medium (no cells) on each plate. After incubation for 24 h, extracellular media were collected and deproteinized by centrifugation (15 min, 10,000 rpm, 4 °C) in 10 kDa cut-off filter tubes (VWR, Avantor, Leuven, Belgium). Differences in L-lactate concentrations between control and treated cells were calculated and normalized by the protein content in each well and expressed in µmol/h/mg protein. Oxygen-consumption rate (OCR) was measured using the Seahorse XF96 plate reader as previously reported. Briefly, cells (2 × 10^4 cells per well) were first permeabilized with 1 nM Seahorse XF Plasma Membrane Permeabilizer (#102504-100; Agilent, Machelen, Belgium) and respiration was stimulated by adding 10 mM pyruvate, 5 mM malate, and 2 mM ADP. After baseline OCR determination, compounds were added (to inhibit complex I) followed by 10 mM succinate to fuel complex II and rescue the electron transport chain. In some experiments, the effects of selected hits on basal OCR were evaluated in intact cells (including in the presence of MCT1/2 inhibitor AR-C155858 [29] or methylpyruvate). OCR data were normalized according to protein content in each well.
Figure 3 Compound-induced L-lactate release (Assay #1). Culture medium was collected after 24 h exposure to the indicated compounds (10 µM) and the amount of extracellular L-lactate release was determined in a semi-automated manner; dose-dependent effects of complex I inhibitor IACS are shown on the right (shaded bars). Bar graph depicts the extent of L-lactate secretion above the basal release as determined in the absence of any compound (n = 3, ** p < 0.01 for increased L-lactate release vs. reference compound aa).

CT26 colon cancer cells = test: Growth inhibitory effects on cultured CT26 cells (Presto Blue); type: cell-based, mouse; settings: CT26 monolayers, 1 µM, 72 h
Excerpt: as §1, §2

[2] = Cell integrity by Trypan blue exclusion; type: cell-based; settings: cancer cells (cell line not specified); 24 h after exposure; read-out: viable cancer cells (Trypan blue exclusion)
Excerpt: as §1
Still, to support the anticancer potential of complex I inhibition, we also examined the cytotoxic effects of longer exposure of intact cancer cells to reference compound aa and hit compounds ag, aj and au. […] While the nature of cell death induced by aa derivatives is beyond the scope of this manuscript, alteration in mitochondria fitness and capacity to buffer calcium could be involved as previously reported.

mitochondrial complex I = mitochondrial complex I (Mus musculus, UniProt P03888+Q91WD5+Q9DC70); test: Seahorse OCR in permeabilized CT26 cancer cells, mitochondrial complex I inhibition (Assay #2); type: cell-based; settings: for pattern of OCR inhibition activity relative to aa: 1 and 10 µM; for IC50: pyruvate/malate, tested at 1 and 10 µM, read-out: OCR inhib. (IC50)
Protocol: as §3
(A–D). Graphs depict changes in O2 consumption rate (OCR) measured with the Seahorse technology on permeabilized CT26 cancer cells upon successive addition of pyruvate/malate, the indicated inhibitor and succinate. […] (E,F).

[3] = system: human cervix Siha cancer cells; test: Growth inhibitory effects on human cancer cells (Presto Blue), SiHa vs MDA-MB-231; type: cell-based; settings: 1 µM
Excerpt: as §1
Suppl. Figure S3. Growth inhibitory effects of hit compounds on human cancer cells. MDA-M B-231 (A) and Siha (B) cancer cells were exposed to 100 nM IACS or 1 µM aa, ag, aj and au compounds; data represent the reduced extent (expressed as %) of cell viability (determined with Presto Blue) when compared with vehicle conditions (n=3).
(also on this page, place not known: 60Growth inhibitory effects (%) MDA-MB-231 aa au 60Growth inhibitory effects (%))

intact CT26 cancer cells = test: Seahorse basal OCR and ECAR in intact (non-permeabilized) CT26 cancer cells; type: cell-based, mouse; settings: non-permeabilized CT26 cells, 10 µM
Protocol: as §3
Since other lactate transporters could be involved, we also used methylpyruvate which can bypass the need for a mitochondrial carrier and mimic the result of lactate oxidation by a mitochondrial LDH or ensure the delivery of pyruvate into the mitochondria matrix. […] In the same experiments carried out on non-permeabilized cancer cells, the extent of basal OCR inhibition in response to 10 µM aa was similar to that observed with 100 nM IACS-010759 (−52 ± 5% and −45 ± 6%, respectively) and mirrored by an increase in extracellular acidification rate (ECAR) (+36 ± 11% and +29 ± 9%, respectively).

3D tumor CT26 spheroids [4] = test: Pimonidazole immunostaining of hypoxia in spheroids; type: cell-based, mouse; settings: treated spheroids
Protocol: (§4) Spheroids were prepared by seeding 1500 cells/well in Ultra-Low Attachment 96-well plate (Corning, Merck, Hoeilaart, Belgium) in DMEM supplemented with 10% heat-inactivated FBS. Inhibitors were added on day 4 (mean diameter of spheroids: 300 µm) and renewed every 3 days. Spheroid growth was monitored using live-cell phase contrast microscope (Axio Observer, Zeiss, Zaventem, Belgium); spheroid area, density and morphology were measured using ImageJ software. Confocal fluorescence microscopy (LSM510, Zeiss, Zaventem, Belgium) was used for detecting pimonidazole immunostaining as previously reported. Spheroids from a same experiment were imaged with the same gain and exposure settings. In some experiments, OXPHOSi treatment was combined with irradiation using a ^137Cs γ-irradiator (IBL-637; CIS-BioInternational, Saclay, France) as previously described.
(§5) Figure 6 Radiosensitizing effects of selected complex I inhibitors. (A) Extent of surviving cancer cells post-exposure to radiotherapy and the indicated compounds (n = 3, * p < 0.05, ** p < 0.01 vs. vehicle condition).

[5] = system: cancer cells from dissociated spheroids; test: Regrowth of cells from dissociated spheroids after irradiation and compound; type: cell-based, mouse; settings: plated for 14 days, compared with aa
Excerpt: Finally, to document the expected re-oxygenation, spheroids treated with compounds aa, aj and am were exposed to the hypoxia probe pimonidazole.
as §5

3D tumor CT26 spheroids [6] = test: Inhibition of 3D tumor spheroid growth (Assay #3); type: cell-based, mouse; settings: for 3D growth inhib. (%): 3D tumor CT26 spheroids; for spheroid growth inhibition compared with reference compound aa: CT26 spheroids, day 10
Protocol: as §4
(§6) Figure 5 Inhibition of 3D tumor spheroid growth (Assay #3). […] Drug exposure without (A) or with irradiation (B) was associated with a significant reduction in spheroid sizes vs. untreated spheroids (not shown).

3D tumor CT26 spheroids [7] = test: Radiosensitizing effects in 3D tumor spheroids (6 Gy irradiation); type: cell-based, mouse; settings: 6 Gy irradiation at day 4, day 10 vs day 3
Protocol: as §4, §6
We also took advantage of 3D tumor spheroids to evaluate whether they could radiosensitize tumors upon O2 sparing resulting from inhibition of O2 consumption. […]

[8] = system: breast cancer 4T1 cancer cells; test: Compound-induced L-lactate release (Assay #1), 4T1; type: cell-based, mouse; settings: 4T1 cells, 24 h
Protocol: L-lactate concentration was measured in a semi-automated manner using CMA Microdialysis AB enzymatic assay and a CMA 600 analyzer (Aurora Borealis, Schoonebeek, The Netherlands) as previously described. Briefly, cells (2 × 10^5 cells per well; 3 wells/condition) were seeded in 12-well plates with 2 mL of their routine culture medium. After 24 h, medium was replaced by 500 µL of DMEM containing 10 mmol/L D-glucose and supplemented with 2 mmol/L L-glutamine and 10% dialyzed FBS (Sigma-Aldrich), in the presence of the compounds or vehicle (DMSO). The initial concentration of L-lactate in the experimental medium was also assessed by including control wells containing only cell culture medium (no cells) on each plate. […] Differences in L-lactate concentrations between control and treated cells were calculated and normalized by the protein content in each well and expressed in µmol/h/mg protein. Oxygen-consumption rate (OCR) was measured using the Seahorse XF96 plate reader as previously reported. […] In some experiments, the effects of selected hits on basal OCR were evaluated in intact cells (including in the presence of MCT1/2 inhibitor AR-C155858 [29] or methylpyruvate). […]
Suppl. […] Culture medium was collected after 24h exposure to the indicated compounds and lactate content was determined in a semi-automated manner. […]

| Compound | growth inhibitory activity (breast 4T1 cancer cells) | [LAC] increase [1] | cytotoxic / growth inhibitory effects (CT26 colon cancer cells) | viability at 24 h [2] | concentration at which complex I-dependent OCR reduction was detectable (mitochondrial complex I) | reversal of OCR inhibition upon succinate addition (mitochondrial complex I; 10 mM succinate) | antiproliferative effects in Siha compared with MDA-MB-231 cells [3] | increase in extracellular acidification rate (ECAR) (intact CT26 cancer cells) | reduction of hypoxia (pimonidazole) (3D tumor CT26 spheroids [4]) | L-lactate release compared with reference compound aa [1] | ability of cancer cells to re-grow after irradiation and compound [5] | 3D growth inhib. (%) (3D tumor CT26 spheroids [6]) | spheroid growth inhibition compared with reference compound aa (3D tumor CT26 spheroids [6]) | change in spheroid size with irradiation (3D tumor CT26 spheroids [7]) | L-lactate release compared with aa compound [8] | pattern of OCR inhibition activity relative to aa (mitochondrial complex I) | IC50 (mitochondrial complex I) |
| --- | --- | --- | --- | --- | --- | --- | --- | --- | --- | --- | --- | --- | --- | --- | --- | --- | --- |
| NC(=O)c1nnn(Cc2cc(Cl)c(C(=O)c3ccc(Cl)cc3)c(Cl)c2)c1N [compound aa, carboxyamidotriazole, reference compound] | more significant growth inhibitory activity | ~2 µmol/h/mg | very limited effects | 90.9 ± 5.1% | 1 µM | full reversal of OCR inhibition | Larger antiproliferative effects | +36 ± 11% |  |  |  |  |  |  |  |  |  |
| NC(=O)c1nnn(Cc2cc(Cl)c(C(=O)C3CCCCC3)c(Cl)c2)c1N [compound aj] | more significant growth inhibitory activity | ~4 µmol/h/mg | very limited effects |  |  |  | Larger antiproliferative effects |  | reduced hypoxia to a larger extent than compound aa | more potent inducers of L-lactate release | much lesser ability to re-grow | >50% | significantly more active than reference compound aa | net reduction in the spheroid size |  |  |  |
| NCc1cn(Cc2cc(Cl)c(C(=O)c3ccc(Cl)cc3)c(Cl)c2)nn1 [at] |  | ~0 µmol/h/mg |  |  |  |  |  |  |  |  |  |  |  |  | less potent | inactive | > 10 µM |
| COC(=O)c1cn(Cc2cc(Cl)c(C(=O)c3ccc(Cl)cc3)c(Cl)c2)nn1 [compound au] | more significant growth inhibitory activity | ~4 µmol/h/mg | very limited effects |  |  |  | Larger antiproliferative effects |  |  | more potent inducers of L-lactate release |  | <25% | significantly lesser growth inhibitory effects than compound aa |  | more | equiactive |  |
| NC(=O)c1nnn(Cc2cc(Cl)c(Cc3ccc(Cl)cc3)c(Cl)c2)c1N [compound am] |  | ~4 µmol/h/mg |  |  |  |  |  |  | reduced hypoxia to a larger extent than compound aa | more potent inducers of L-lactate release | much lesser ability to re-grow | >50% | significantly more active than reference compound aa | net reduction in the spheroid size |  |  | ~10 µM |
